# Measurements taken from patent US20260250318A1, “COMPOSITIONS AND METHODS FOR CROSSING THE BLOOD BRAIN BARRIER” (VOYAGER THERAPEUTICS, INC., priority 2022, published 2026).
# System: brains, heart, liver, muscle, and DRG of the NHPs
# Assay: Maturation of TTM-001 and TTM-002 capsids, NGS enrichment in NHP tissues
# Format: in vivo
# Settings: NGS, relative to AAV9 control; for Fold Enrichment relative to AAV9, Liver RNA (NHP): TTM-001 and TTM-002 matured AAV capsid variants
# Description: This Example describes maturation of the AAV9 capsid variants, TTM-001 (SEQ ID NO: 981 (amino acid) and 983 (DNA), comprising SEQ ID NO: 941 (encoded by SEQ ID NO: 942)) and TTM-002 (SEQ ID NO: 982 (amino acid) and 984 (DNA), comprising SEQ ID NO: […] (encoded by SEQ ID NO: 944)) in NHPs to further enhance their transduction and biodistribution in the central nervous system as well as other tissues, and evolve the AAV capsid variants to provide further cross-species compatibility. Two approaches were used to mature the TTM-001 and TTM-002 capsid sequences in order to randomize and mutate within and around the peptide insert comprised within loop IV of the capsid variant. […] In the first maturation approach, sets of three contiguous amino acids were randomized across the mutagenesis region in the TTM-001 and TTM-002 sequences, which spanned from position 450 to position 466, numbered according to SEQ ID NO: 981 and 982. In the second maturation approach, mutagenic primers were used to introduce point mutations at a low frequency, scattered across the mutagenesis region in the TTM-001 and TTM-002 sequences ranging from position 449 to position 466, numbered according to SEQ ID NO: 981 and 982. AAV capsid variants arising from each maturation approach for TTM-001 and TTM-002 were pooled together, for subsequent testing and characterization in NHPs.
# The library of pooled matured AAV capsid variants generated using the first maturation approach and the second maturation approach for the TTM-001 and TTM-002 AAV capsid variants were injected into two NHPs. […] Following RNA recovery and RT-PCR amplification, a systematic NGS enrichment analysis was performed to calculate the fold enrichment ratio relative to an AAV9 control, and the peptides comprised within the variants were identified.
# Following the RNA recovery and NGS analysis from the second maturation approach, approximately 680,000 capsid variants were identified. The 680,000 matured capsid variants were then filtered based on samples with a raw virus count greater than 10 and a coefficient of variance (CV) of less than 1, which was calculated for each peptide across the brain samples taken from the two NHPs. […] Using this filtering criteria, this led to approximately 64,000 matured capsid variants.
sequence,measurement,value
KTINGSGSPHSLAWNQQT,"Fold Enrichment relative to AAV9, DRG (NHP)",0.000 fold
same,"Fold Enrichment relative to AAV9, Brain (NHP)",0.000 fold
same,"Fold Enrichment relative to AAV9, Heart (NHP)",0.000 fold
same,"Fold Enrichment relative to AAV9, Liver DNA (NHP)",4.746 fold
same,"Fold Enrichment relative to AAV9, Liver RNA (NHP)",29.015 fold
same,"Fold Enrichment relative to AAV9, Muscle (NHP)",0.000 fold
KTINGSGSPHSLCLNQQT,"Fold Enrichment relative to AAV9, DRG (NHP)",0.000 fold
same,"Fold Enrichment relative to AAV9, Brain (NHP)",0.000 fold
same,"Fold Enrichment relative to AAV9, Heart (NHP)",0.000 fold
same,"Fold Enrichment relative to AAV9, Liver DNA (NHP)",1.790 fold
same,"Fold Enrichment relative to AAV9, Liver RNA (NHP)",17.028 fold
same,"Fold Enrichment relative to AAV9, Muscle (NHP)",0.000 fold
KTINGSGSPHSLPYNQQT,"Fold Enrichment relative to AAV9, DRG (NHP)",0.000 fold
same,"Fold Enrichment relative to AAV9, Brain (NHP)",0.000 fold
same,"Fold Enrichment relative to AAV9, Heart (NHP)",0.000 fold
same,"Fold Enrichment relative to AAV9, Liver DNA (NHP)",2.048 fold
same,"Fold Enrichment relative to AAV9, Liver RNA (NHP)",14.792 fold
same,"Fold Enrichment relative to AAV9, Muscle (NHP)",0.000 fold
KTINGSGSPHSLWKNQQT,"Fold Enrichment relative to AAV9, DRG (NHP)",0.000 fold
same,"Fold Enrichment relative to AAV9, Brain (NHP)",0.000 fold
same,"Fold Enrichment relative to AAV9, Heart (NHP)",0.000 fold
same,"Fold Enrichment relative to AAV9, Liver DNA (NHP)",4.010 fold
same,"Fold Enrichment relative to AAV9, Liver RNA (NHP)",45.796 fold
same,"Fold Enrichment relative to AAV9, Muscle (NHP)",0.000 fold
KTINGSGSPHSLYQNQQT,"Fold Enrichment relative to AAV9, DRG (NHP)",0.000 fold
same,"Fold Enrichment relative to AAV9, Brain (NHP)",0.000 fold
same,"Fold Enrichment relative to AAV9, Heart (NHP)",0.000 fold
same,"Fold Enrichment relative to AAV9, Liver DNA (NHP)",1.503 fold
same,"Fold Enrichment relative to AAV9, Liver RNA (NHP)",11.590 fold
same,"Fold Enrichment relative to AAV9, Muscle (NHP)",0.000 fold
KTINGSGSPHSLYWNQQT,"Fold Enrichment relative to AAV9, DRG (NHP)",0.000 fold
same,"Fold Enrichment relative to AAV9, Brain (NHP)",0.000 fold
same,"Fold Enrichment relative to AAV9, Heart (NHP)",0.000 fold
same,"Fold Enrichment relative to AAV9, Liver DNA (NHP)",0.000 fold
same,"Fold Enrichment relative to AAV9, Liver RNA (NHP)",53.262 fold
same,"Fold Enrichment relative to AAV9, Muscle (NHP)",0.000 fold
KTINGSGSPHSMCQNQQT,"Fold Enrichment relative to AAV9, DRG (NHP)",0.000 fold
same,"Fold Enrichment relative to AAV9, Brain (NHP)",0.000 fold
same,"Fold Enrichment relative to AAV9, Heart (NHP)",0.000 fold
same,"Fold Enrichment relative to AAV9, Liver DNA (NHP)",1.348 fold
same,"Fold Enrichment relative to AAV9, Liver RNA (NHP)",37.209 fold
same,"Fold Enrichment relative to AAV9, Muscle (NHP)",0.000 fold
KTINGSGSPHSMCTNQQT,"Fold Enrichment relative to AAV9, DRG (NHP)",0.000 fold
same,"Fold Enrichment relative to AAV9, Brain (NHP)",0.000 fold
same,"Fold Enrichment relative to AAV9, Heart (NHP)",0.000 fold
same,"Fold Enrichment relative to AAV9, Liver DNA (NHP)",0.392 fold
same,"Fold Enrichment relative to AAV9, Liver RNA (NHP)",13.114 fold
same,"Fold Enrichment relative to AAV9, Muscle (NHP)",0.000 fold
KTINGSGSPHSMYMNQQT,"Fold Enrichment relative to AAV9, DRG (NHP)",0.000 fold
same,"Fold Enrichment relative to AAV9, Brain (NHP)",0.000 fold
same,"Fold Enrichment relative to AAV9, Heart (NHP)",0.000 fold
same,"Fold Enrichment relative to AAV9, Liver DNA (NHP)",5.840 fold
same,"Fold Enrichment relative to AAV9, Liver RNA (NHP)",81.106 fold
same,"Fold Enrichment relative to AAV9, Muscle (NHP)",0.000 fold
KTINGSGSPHSPPDNQQT,"Fold Enrichment relative to AAV9, DRG (NHP)",0.000 fold
same,"Fold Enrichment relative to AAV9, Brain (NHP)",0.000 fold
same,"Fold Enrichment relative to AAV9, Heart (NHP)",0.000 fold
same,"Fold Enrichment relative to AAV9, Liver DNA (NHP)",0.033 fold
same,"Fold Enrichment relative to AAV9, Liver RNA (NHP)",12.973 fold
same,"Fold Enrichment relative to AAV9, Muscle (NHP)",0.000 fold
KTINGSGSPHSRCPNQQT,"Fold Enrichment relative to AAV9, DRG (NHP)",0.000 fold
same,"Fold Enrichment relative to AAV9, Brain (NHP)",0.000 fold
same,"Fold Enrichment relative to AAV9, Heart (NHP)",0.000 fold
same,"Fold Enrichment relative to AAV9, Liver DNA (NHP)",4.890 fold
same,"Fold Enrichment relative to AAV9, Liver RNA (NHP)",39.529 fold
same,"Fold Enrichment relative to AAV9, Muscle (NHP)",0.000 fold
KTINGSGSPHSRCRNQQT,"Fold Enrichment relative to AAV9, DRG (NHP)",0.000 fold
same,"Fold Enrichment relative to AAV9, Brain (NHP)",0.000 fold
same,"Fold Enrichment relative to AAV9, Heart (NHP)",0.000 fold
same,"Fold Enrichment relative to AAV9, Liver DNA (NHP)",5.150 fold
same,"Fold Enrichment relative to AAV9, Liver RNA (NHP)",64.416 fold
same,"Fold Enrichment relative to AAV9, Muscle (NHP)",0.000 fold
KTINGSGSPHSRFWNQQT,"Fold Enrichment relative to AAV9, DRG (NHP)",0.000 fold
same,"Fold Enrichment relative to AAV9, Brain (NHP)",0.000 fold
same,"Fold Enrichment relative to AAV9, Heart (NHP)",0.000 fold
same,"Fold Enrichment relative to AAV9, Liver DNA (NHP)",6.955 fold
same,"Fold Enrichment relative to AAV9, Liver RNA (NHP)",51.225 fold
same,"Fold Enrichment relative to AAV9, Muscle (NHP)",0.000 fold
